According to patent US6133279A, “Therapeutic agents for renal diseases and organ preservatives” (Chugai Seiyaku Kabushiki Kaisha, priority 1996, dated 2000):
Like-named read-outs stand apart in the source and are kept apart here.

Tests used:
[1] = system: porcine kidney-derived LLC-PK1 cells; assay: Protective effect against oxidized LDL-induced injury of porcine kidney-derived LLC-PK1 cells (2); type: cell-based; details: Sus scrofa, LLC-PK1, 6 h, mean ± standard deviation, read-out: Cytoprotection rate (%)
Protocol: For the purpose of evaluating in vitro cytoprotective effect of the compounds of the present invention, a cytoprotective study was performed using porcine kidney-derived LLC-PK1 cells (ATCC-CRL-13921) injured by oxidized low-density lipoprotein (oxidized LDL) in the same manner as in Test example 1 with the exception of some points.
Preparation of oxidized LDL and the conditions for cell culture and addition of test compounds were the same as in Test example 1. However, oxidized LDL was not diluted with saline and added to cells in an amount of 25 μl/well to a concentration of 91 μg/ml and the cells were cultured for 6 hours after addition of the oxidized LDL. Then, 150 μl/well of the culture medium were collected and measured for the lactate dehydrogenase (LDH) level (LD-L: SIGMA DIAGNOSTICS) having leaked in the medium.

[2] = system: murine mesangial derived MES13 cells; assay: Protective effect against oxidized LDL-induced injury of murine mesangial cells (in vitro); type: cell-based; details: Mus musculus, MES13, 10 h, mean ± standard deviation, read-out: Cytoprotection rate (%)
Protocol: For the purpose of evaluating in vitro cytoprotective effect of the compounds of the present invention on mesangial cells, a cytoprotective study was performed using murine mesangial derived MES13 cells (ATCC-CRL-1927) injured by oxidized LDL.
Oxidized LDL was prepared in the same manner as in Test example 1. Cell culture was carried out by plating 2.5×10^4 cells/250 μl/well on a 48-well plate using FBS-free medium (mixture of DME medium and F12 medium in a ratio of 3:1). Test compounds were dissolved or suspended in ethanol and added to the wells in an amount of 1.25 μl/well to a concentration of 1 or 10 μM in each well. After 16 hours or immediately after the addition of the compounds, oxidized LDL was added to cells in an amount of 25 μl/well to a concentration of 91 μg/ml and the cells were cultured for 10 hours after addition of the oxidized LDL. Then, 150 μl/well of the culture medium were collected and measured for the lactate dehydrogenase level (LDL: SIGMA DIAGNOSTICS) having leaked in the medium.
The magnitude of cytoprotective effect was expressed as the cytoprotection rate which was determined by calculating the data assuming that the magnitude in wells containing oxidized LDL is 0% and that the magnitude in containing saline is 100%.

[3] = compound added 16 hours before adding oxidized LDL
[4] = compound added immediately before adding oxidized LDL

| Compound | inhibition at 0.1 µM [1, 3] | inhibition at 0.1 µM [1, 4] | inhibition at 1 µM [1, 3] | inhibition at 1 µM [1, 4] | inhibition at 10 µM [1, 3] | inhibition at 10 µM [1, 4] | inhibition at 1 µM [2, 3] | inhibition at 1 µM [2, 4] | inhibition at 10 µM [2, 3] | inhibition at 10 µM [2, 4] |
| --- | --- | --- | --- | --- | --- | --- | --- | --- | --- | --- |
| CC1(CNC(=N)NN)Cc2c(cc(C(C)(C)C)c(O)c2C(C)(C)C)O1 (centres unmarked) [Example 81, 1-Amino-3-[(4,6-di-t-butyl-5-hydroxy-2-methyl-2,3-dihydrobenzofuran-2-yl)methyl]guanidine] | 6.9 ± 3.1% | 8.8 ± 1.6% | 4.2 ± 5.1% | 37.8% | 101.1 ± 0.1% | 101.3 ± 0.1% | -3.9 ± 1.5% | 3.9 ± 2.2% | 7.3 ± 7.2% | 73.4 ± 3.3% |
| CC1(CCCCCC(=O)O)Cc2c(cc(C(C)(C)C)c(O)c2C(C)(C)C)O1 (centres unmarked) [Example 78, 6-(4,6-Di-t-butyl-5-hydroxy-2-methyl-2,3-dihydrobenzofuran-2-yl)hexanoic acid] | -2.8 ± 0.9% | -11.6 ± 2.7% | -10.7 ± 8.9% | -6.7% | 67.5 ± 6.1% | 80.9 ± 1.5% | 13.5 ± 5.6% | 13.2 ± 1.4% | 7.6 ± 2.1% | 51.3 ± 2.7% |
| CC(C)(C)c1cc2c(c(C(C)(C)C)c1O)CC1(CCOCC1)S2 [Example 69, 4,6-Di-t-butyl-5-hydroxy-2,3-dihydrobenzothiophene-2-spiro-4'-tetrahydropyran] | 1 ± 4.7% | 4.5 ± 2.1% | 24.6 ± 12.8% | 42.5% | 100.4 ± 0.5% | 101.6 ± 0.7% | 4.2 ± 6.3% | 15.6 ± 4% | 54.8 ± 9.3% | 89.8 ± 0.8% |
| CC1(C=CCCCC(=O)O)Cc2c(cc(C(C)(C)C)c(O)c2C(C)(C)C)O1 (centres unmarked) [Example 77, 6-(4,6-Di-t-butyl-5-hydroxy-2-methyl-2,3-dihydrobenzofuran-2-yl)-5-hexenoicacid] | 12.3 ± 2.7% | 9.1 ± 1.8% | 6.1 ± 1.5% | 10.6% | 35.8 ± 4% | 48.5 ± 2.1% | 8.4 ± 0.4% | 8.7 ± 2.3% | 2.5 ± 2.8% | 24.3 ± 1.7% |
| CC(C)(C)c1cc2c(c(C(C)(C)C)c1O)CC1(CCCCCCC1)O2 [Example 21, 4,6-Di-t-butyl-5-hydroxy-2,3-dihydrobenzofuran-2-spiro-1'-cyclooctane] | 15.6 ± 3.6% | 2.5 ± 2.5% | 13.7 ± 13.4% | 6.1% | 16 ± 2.6% | 14.4 ± 3.9% | -7.5 ± 4.2% | -1.5 ± 1.2% | -7 ± 3.4% | 11.9 ± 4.8% |
| CC1(CNNC(=N)N)Cc2c(cc(C(C)(C)C)c(O)c2C(C)(C)C)O1 (centres unmarked) [Example 87, 1-[(4,6-Di-t-butyl-5-hydroxy-2-methyl-2,3-dihydrobenzofuran-2-yl)methylamino]guanidine] | -7.8 ± 4.4% | -0.3 ± 0.5% | 6.5 ± 5.2% | 28.6% | 103.6 ± 0.5% | 101.8 ± 0.6% | 3.7 ± 3.3% | 30.3 ± 3.8% | 35.5 ± 4.2% | 86.2 ± 0.6% |
| CC1(C(=O)N2CCCC2)Cc2c(cc(C(C)(C)C)c(O)c2C(C)(C)C)O1 (centres unmarked) [Example 74, 1-(4,6-Di-t-butyl-5-hydroxy-2-methyl-2,3-dihydrobenzofuran-2-carbonyl)pyrrolidine] | 25.2 ± 3.3% | 10.1 ± 2.3% | 54.8 ± 3.8% | 72.7% | 103.6 ± 0.5% | 103.5 ± 0.6% | -10.2 ± 1.4% | 18.7 ± 2.8% | 24.5 ± 3.3% | 73 ± 0.3% |
| CC1(CNC(N)=S)Cc2c(cc(C(C)(C)C)c(O)c2C(C)(C)C)O1 (centres unmarked) [Example 80, 1-[(4,6-Di-t-butyl-5-hydroxy-2-methyl-2,3-dihydrobenzofuran-2-yl)methyl]thiourea] | 9.2 ± 1.8% | -1.3 ± 1.4% | 23.7 ± 5.8% | 10.7% | 102.4 ± 0.5% | 102.6 ± 1% | -7 ± 0.8% | -1.3 ± 3.4% | 22.1 ± 0.7% | 56.2 ± 2.4% |
| CCOC(=O)/C=C/C1(C)Cc2c(cc(C(C)(C)C)c(O)c2C(C)(C)C)O1 (centres unmarked) [Example 75, Ethyl 3-(4,6-di-t-butyl-5-hydroxy-2-methyl-2,3-dihydrobenzofuran-2-yl)-2-propenoate] | 4.9 ± 2.7% | -4.9 ± 1.8% | 26.6 ± 7% | 51.8% | 99.8 ± 0.9% | 98.7 ± 0.4% | -8 ± 2% | 32.3 ± 2.4% | 64.5 ± 6.4% | 79 ± 1.8% |
| CC1(COc2ccc(CNNC(=N)N)cc2)Cc2c(cc(C(C)(C)C)c(O)c2C(C)(C)C)O1 (centres unmarked) [Example 86, 1-{4-[(4,6-Di-t-butyl-5-hydroxy-2-methyl-2,3-dihydrobenzofuran-2-yl)methoxy]benzylamino}guanidine] | -0.4 ± 1.9% | -0.7 ± 2.3% | 3.6 ± 5.8% | 0.2% | 40 ± 2.2% | 102.5 ± 0.5% | -1 ± 11.2% | 19.8 ± 7% | -4.3 ± 1.9% | 78.7 ± 0.7% |
| CCOC(=O)CCC1(C)Cc2c(cc(C(C)(C)C)c(O)c2C(C)(C)C)O1 (centres unmarked) [Example 76, Ethyl 3-(4,6-di-t-butyl-5-hydroxy-2-methyl-2,3-dihydrobenzofuran-2-yl)propanoate] | -10.4 ± 4.2% | -12.8 ± 1.2% | -2.8 ± 3.5% | -7.6% | 13.8 ± 4.2% | 58.8 ± 9.5% | -4.8 ± 4.1% | 5.3 ± 3.9% | -17.2 ± 0.9% | 34.1 ± 2.5% |
| CC(C)(C)c1cc2c(c(C(C)(C)C)c1O)CC1(CCSCC1)O2 [Example 68, 4,6-Di-t-butyl-5-hydroxy-2,3-dihydrobenzofuran-2-spiro-4'-tetrahydrothiopyran] | 12 ± 3.6% | 6.3 ± 3.3% | 56.2 ± 4.6% | 85.8% | 102 ± 1.5% | 100.6 ± 0.2% |  |  |  |  |
| CC1(CN)Cc2c(cc(C(C)(C)C)c(O)c2C(C)(C)C)O1 (centres unmarked) [Example 70, 2-Aminomethyl-4,6-di-t-butyl-5-hydroxy-2-methyl-2,3-dihydrobenzofuran] | 17.5 ± 2.2% | 9.9 ± 2.4% | 101 ± 0.7% | 101% | 100.7 ± 0.8% | 101.3 ± 0.6% |  |  |  |  |
